Reference: US12617758B2, “Quinazoline derivative having FLT3 inhibitory activity, and use thereof” (INDUSTRY-UNIVERSITY COOPERATION FOUNDATION HANYANG …, priority 2020, dated 2026)

Legend:
Assay type in all cases: biochemical
[1] = molecular target: ERK1 (Homo sapiens, UniProt P27361); assay: Kinase panel screening; conditions: control SCH772984 instead of staurosporine
[2] = molecular target: T1, FLT3 (Homo sapiens, UniProt P36888); assay: FLT3 enzyme activity (IC50); conditions: read-out: FLT3 IC50
T1 sequence (P36888 27-993): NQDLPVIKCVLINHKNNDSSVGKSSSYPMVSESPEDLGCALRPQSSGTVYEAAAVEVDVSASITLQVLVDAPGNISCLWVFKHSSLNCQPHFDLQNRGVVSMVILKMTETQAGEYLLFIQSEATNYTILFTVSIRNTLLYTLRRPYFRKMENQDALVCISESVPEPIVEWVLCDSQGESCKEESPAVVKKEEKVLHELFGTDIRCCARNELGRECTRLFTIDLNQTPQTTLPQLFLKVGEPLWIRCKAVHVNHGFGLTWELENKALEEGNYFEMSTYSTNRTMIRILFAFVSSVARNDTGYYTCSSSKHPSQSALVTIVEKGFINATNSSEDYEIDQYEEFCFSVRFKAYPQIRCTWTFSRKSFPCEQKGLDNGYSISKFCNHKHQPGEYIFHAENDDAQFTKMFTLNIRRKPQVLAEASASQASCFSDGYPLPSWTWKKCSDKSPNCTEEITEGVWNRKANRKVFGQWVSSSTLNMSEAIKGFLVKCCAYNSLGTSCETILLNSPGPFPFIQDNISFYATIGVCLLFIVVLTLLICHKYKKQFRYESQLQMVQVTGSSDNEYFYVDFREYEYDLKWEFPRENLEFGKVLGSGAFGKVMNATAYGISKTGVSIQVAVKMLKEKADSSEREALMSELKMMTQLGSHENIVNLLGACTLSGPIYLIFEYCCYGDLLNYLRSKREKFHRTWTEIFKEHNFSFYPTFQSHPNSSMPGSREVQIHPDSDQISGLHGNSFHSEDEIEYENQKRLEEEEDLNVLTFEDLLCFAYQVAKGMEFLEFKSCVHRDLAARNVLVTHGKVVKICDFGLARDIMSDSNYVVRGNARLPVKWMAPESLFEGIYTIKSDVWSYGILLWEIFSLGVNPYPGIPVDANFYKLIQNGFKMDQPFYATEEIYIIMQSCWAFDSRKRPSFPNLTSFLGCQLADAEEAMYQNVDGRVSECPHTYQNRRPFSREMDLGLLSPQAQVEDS
Description: (§1) Experimental Example 1. Measurement of FLT3 and FLT Enzyme Activity
(§2) Changes in FLT3 and FLT enzyme activities by treatment with the quinazoline derivatives of the following Table 1 according to the present invention were confirmed by IC50.

[3] = molecular target: T2, FLT (ITD) (Homo sapiens, UniProt P36888); assay: FLT (ITD) enzyme activity (IC50); conditions: read-out: FLT (ITD) IC50
T2 sequence (P36888 1-993): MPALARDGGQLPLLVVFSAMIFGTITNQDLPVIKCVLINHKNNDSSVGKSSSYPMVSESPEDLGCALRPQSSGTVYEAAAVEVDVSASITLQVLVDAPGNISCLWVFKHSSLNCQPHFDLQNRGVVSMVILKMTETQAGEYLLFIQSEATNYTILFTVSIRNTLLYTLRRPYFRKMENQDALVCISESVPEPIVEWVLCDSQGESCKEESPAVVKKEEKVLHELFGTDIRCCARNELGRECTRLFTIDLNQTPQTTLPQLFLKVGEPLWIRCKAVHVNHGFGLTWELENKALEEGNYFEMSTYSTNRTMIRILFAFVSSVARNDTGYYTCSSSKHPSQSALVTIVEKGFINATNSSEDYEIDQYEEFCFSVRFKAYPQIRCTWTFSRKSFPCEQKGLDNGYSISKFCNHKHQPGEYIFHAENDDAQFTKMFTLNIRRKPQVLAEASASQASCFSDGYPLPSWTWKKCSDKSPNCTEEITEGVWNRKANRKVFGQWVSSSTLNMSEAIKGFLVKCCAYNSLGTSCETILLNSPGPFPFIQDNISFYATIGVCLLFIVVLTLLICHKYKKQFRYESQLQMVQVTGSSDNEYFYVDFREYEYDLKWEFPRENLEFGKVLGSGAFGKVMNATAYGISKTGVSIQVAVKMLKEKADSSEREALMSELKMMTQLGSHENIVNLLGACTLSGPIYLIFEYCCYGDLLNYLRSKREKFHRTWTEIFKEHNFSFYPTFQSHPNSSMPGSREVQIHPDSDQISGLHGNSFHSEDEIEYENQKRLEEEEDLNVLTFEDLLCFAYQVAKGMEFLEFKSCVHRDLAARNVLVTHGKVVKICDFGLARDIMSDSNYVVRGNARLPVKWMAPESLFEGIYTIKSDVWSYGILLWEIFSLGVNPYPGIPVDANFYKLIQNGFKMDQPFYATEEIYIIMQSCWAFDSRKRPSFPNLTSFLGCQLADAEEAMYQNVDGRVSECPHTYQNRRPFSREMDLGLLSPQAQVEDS
Description: as §1, §2

[4] = molecular target: RIPK3 (Homo sapiens, UniProt Q9Y572); assay: Kinase panel screening; conditions: read-out: IC50 (nM), data of GW5074, control GW5074 instead of staurosporine
Experimental: Next, kinase panel screening for Compound 7d was investigated for 36 different kinases at a single dose of 10 μM (FIG. 1 and Table 3).

Sequence of ERK1 (P27361 whole entry, species assumed): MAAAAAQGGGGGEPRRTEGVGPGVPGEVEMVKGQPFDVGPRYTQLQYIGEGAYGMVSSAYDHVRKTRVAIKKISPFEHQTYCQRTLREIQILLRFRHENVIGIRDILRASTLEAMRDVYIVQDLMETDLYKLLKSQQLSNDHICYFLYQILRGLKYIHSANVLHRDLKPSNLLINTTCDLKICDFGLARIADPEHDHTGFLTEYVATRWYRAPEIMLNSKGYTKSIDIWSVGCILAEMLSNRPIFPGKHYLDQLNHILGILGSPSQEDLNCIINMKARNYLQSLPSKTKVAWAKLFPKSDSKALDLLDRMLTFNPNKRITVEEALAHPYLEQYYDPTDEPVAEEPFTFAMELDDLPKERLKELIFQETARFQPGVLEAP
Sequence of RIPK3 (Q9Y572 whole entry, species assumed): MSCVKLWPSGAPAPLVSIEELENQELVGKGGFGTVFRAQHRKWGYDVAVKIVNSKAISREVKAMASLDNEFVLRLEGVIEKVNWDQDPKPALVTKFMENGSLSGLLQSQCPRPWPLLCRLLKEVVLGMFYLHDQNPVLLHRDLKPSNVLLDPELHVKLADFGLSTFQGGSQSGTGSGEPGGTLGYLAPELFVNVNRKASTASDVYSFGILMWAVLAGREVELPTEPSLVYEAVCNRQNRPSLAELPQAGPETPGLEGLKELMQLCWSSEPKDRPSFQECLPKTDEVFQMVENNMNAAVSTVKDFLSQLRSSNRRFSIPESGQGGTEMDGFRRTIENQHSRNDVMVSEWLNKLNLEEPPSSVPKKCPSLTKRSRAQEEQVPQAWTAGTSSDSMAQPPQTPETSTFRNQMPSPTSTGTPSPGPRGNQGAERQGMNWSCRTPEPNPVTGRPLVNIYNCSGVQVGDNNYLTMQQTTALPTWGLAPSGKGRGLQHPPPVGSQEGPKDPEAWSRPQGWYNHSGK

Row | Structure (SMILES) | IC50 [1] [nM] | IC50 [2] [µM] | IC50 [3] [µM] | IC50 [4] [nM]
1 | Cc1oncc1C(=O)Nc1ccc2cnc(-c3ccc(Cl)c(Cl)c3)nc2c1 [Compound 7r, N-(2-(3,4-dichlorophenyl)quinazolin-7-yl)-5-methylisoxazole-4-carboxamide] |  | > 10 | > 10 | 
2 | Cc1oncc1C(=O)Nc1ccc2cnc(-c3ccc4c(c3)CCO4)nc2c1 [Compound 7v, N-(2-(2,3-dihydrobenzofuran-5-yl)quinazolin-7-yl)-5-methylisoxazole-4-carboxamide] |  | > 10 | > 10 | 
3 | O=C1Nc2ccc(I)cc2/C1=C/c1cc(Br)c(O)c(Br)c1 [GW5074, reference compound] |  |  |  | 1650
4 | Cc1oncc1C(=O)Nc1ccc2cnc(/C=C/c3ccc(Cl)cc3)nc2c1 [Compound 7k, (E)-N-(2-(4-chlorostyryl)quinazolin-7-yl)-5-methylisoxazole-4-carboxamide] |  | > 10 | > 10 | 
5 | Cc1oncc1C(=O)Nc1ccc2cnc(-c3ccc(N4CCOCC4)c(C(F)(F)F)c3)nc2c1 [Compound 7a, 5-methyl-N-(2-(4-morpholino-5-(trifluoromethyl)phenyl)quinazolin-7-yl)isoxazole-4-carboxamide] |  | > 10 | > 10 | 
6 | Cc1oncc1C(=O)Nc1ccc2cnc(-c3cc(C(C)(C)C)on3)nc2c1 [Compound 7l, N-(2-(5-(tert-butyl)isoxazol-3-yl)quinazolin-7-yl)-5-methylisoxazole-4-carboxamide] |  | > 10 | > 10 | 
7 | Cc1oncc1C(=O)Nc1ccc2cnc(-c3ccncc3)nc2c1 [Compound 7p, 5-methyl-N-(2-(pyridin-4-yl)quinazolin-7-yl)isoxazole-4-carboxamide] |  | > 10 | > 10 | 
8 | CCN1CCN(Cc2cc(-c3ncc4ccc(NC(=O)c5cnoc5C)cc4n3)cc(C(F)(F)F)c2)CC1 [Compound 7e, N-(2-(3-((4-ethylpiperazin-1-yl)methyl)-5-(trifluoromethyl)phenyl)quinazolin-7-yl)-5-methylisoxazole-4-carboxamide] |  | < 3 | 3 to 10 | 
9 | Cc1oncc1C(=O)Nc1ccc2cnc(-c3ccccn3)nc2c1 [Compound 7q, 5-methyl-N-(2-(pyridin-2-yl)quinazolin-7-yl)isoxazole-4-carboxamide] |  | > 10 | > 10 | 
10 | Cc1cn(-c2cc(-c3ncc4ccc(NC(=O)c5cnoc5C)cc4n3)cc(C(F)(F)F)c2)cn1 [Compound 7c, 5-methyl-N-(2-(3-(4-methyl-1H-imidazol-1-yl)-5-(trifluoromethyl)phenyl)quinazolin-7-yl)isoxazole-4-carboxamide] |  | < 3 | < 3 | 
11 | Cc1oncc1C(=O)Nc1ccc2cnc(-c3cc(OC4CCN(C)CC4)cc(C(F)(F)F)c3)nc2c1 [Compound 7n, 5-methyl-N-(2-(3-((1-methylpiperidin-4-yl)oxy)-5-(trifluoromethyl)phenyl)quinazolin-7-yl)isoxazole-4-carboxamide] |  | 3 to 10 | 3 to 10 | 

Now from value to molecule:

Row | IC50 [1] [nM] | IC50 [2] [µM] | IC50 [3] [µM] | IC50 [4] [nM] | Structure (SMILES)
12 | 4.47 |  |  |  | O=C(Nc1ccc2[nH]nc(-c3ccncc3)c2c1)[C@@H]1CCN(CC(=O)N2CCN(c3ccc(-c4ncccn4)cc3)CC2)C1 [SCH772984, reference compound]
13 |  | > 10 | > 10 |  | Cc1oncc1C(=O)Nc1ccc2cnc(Cc3ccccc3C(F)(F)F)nc2c1 [Compound 7t, 5-methyl-N-(2-(2-(trifluoromethyl)benzyl)quinazolin-7-yl)isoxazole-4-carboxamide]
14 |  | 3 to 10 | 3 to 10 |  | Cc1oncc1C(=O)Nc1ccc2cnc(-c3cc(N4CCOCC4)cc(C(F)(F)F)c3)nc2c1 [Compound 7b, 5-methyl-N-(2-(3-morpholino-5-(trifluoromethyl)phenyl)quinzolin-7-yl)isoxazole-4-carboxamide]
15 |  | > 10 | > 10 |  | Cc1oncc1C(=O)Nc1ccc2cnc(-c3ccc(Cl)c(C(F)(F)F)c3)nc2c1 [Compound 7g, N-(2-(4-chloro-3-(trifluoromethyl)phenyl)quinazolin-7-yl)-5-methylisoxazole-4-carboxamide]
16 |  | > 10 | > 10 |  | CC(=O)N1CCC(c2ncc3ccc(NC(=O)c4cnoc4C)cc3n2)CC1 [Compound 7o, N-(2-(1-acetylpiperidin-4-yl)quinazolin-7-yl)-5-methylisoxazole-4-carboxamide]
17 |  | > 10 | > 10 |  | COc1ccc(CCc2ncc3ccc(NC(=O)c4cnoc4C)cc3n2)cc1 [Compound 7w, N-(2-(4-methoxyphenethyl)quinazolin-7-yl)-5-methylisoxazole-4-carboxamide]
18 |  | > 10 | > 10 |  | Cc1oncc1C(=O)Nc1ccc2cnc(-c3cccc(Cl)c3)nc2c1 [Compound 7i, N-(2-(3-chlorophenyl)quinazolin-7-yl)-5-methylisoxazole-4-carboxamide]
19 |  | > 10 | > 10 |  | Cc1oncc1C(=O)Nc1ccc2cnc(-c3cnn(-c4ccccc4)c3C(F)(F)F)nc2c1 [Compound 7h, 5-methyl-N-(2-(1-phenyl-5-(trifluoromethyl)-1H-pyrazol-4-yl)quinazolin-7-yl)isoxazole-4-carboxamide]
20 |  | > 10 | > 10 |  | Cc1oncc1C(=O)Nc1ccc2cnc(Cc3ccc(F)cc3)nc2c1 [Compound 7s, N-(2-(4-fluorobenzyl)quinazolin-7-yl)-5-methylisoxazole-4-carboxamide]
21 |  | 3 to 10 | > 10 |  | COc1ccc(/C=C/c2ncc3ccc(NC(=O)c4cnoc4C)cc3n2)cc1 [Compound 7j, (E)-N-(2-(4-methoxystyryl)quinazolin-7-yl)-5-methylisoxazole-4-carboxamide]
22 |  | > 10 | > 10 |  | Cc1oncc1C(=O)Nc1ccc2cnc(-c3cc(F)cc(C(F)(F)F)c3)nc2c1 [Compound 7f, N-(2-(3-fluoro-5-(trifluoromethyl)phenyl)quinazolin-7-yl)-5-methylisoxazole-4-carboxamide]
23 |  | > 10 | > 10 |  | Cc1oncc1C(=O)Nc1ccc2cnc(-c3ccc4ccccc4c3)nc2c1 [Compound 7u, 5-methyl-N-(2-(naphthalen-2-yl)quinazolin-7-yl)isoxazole-4-carboxamide]
